Source: patent US20160073662A1, “PRESERVATIVE AND ADDITIVE FOR FOOD AND FEED” (priority 2014, published 2016)

Assay: Contact of acid solution with human skin
Conditions: solution with a pH of less than 0.5

## O=S(=O)(O)O [sulfuric acid]
  irritation of hand put into solution: an irritation would occur
